Data taken from patent US8278100B2, “Lasonolide compounds as reagents for inducing premature chromosome condensation and methods for treating disorders” (The United States of America, as Represented by the …, priority 2008, dated 2012).

Assays:
tumor cells = assay: Premature chromosome condensation (PCC) induction, cells not specified; type: cell-based; settings: co-treatment with Lasonolide A
Experimental: (§1) Burkitt's Lymphoma CA46 cells (500,000) (FIG. 1B) or breast cancer MDA-MB-231 cells (500,000) (FIG. 1A) were treated by 100 nM Lasonolide A (stock solution 100 μM in DMSO) for 1 h. Lymphocytes were treated with 200 nM Lasonolide A for 1 h. Cells were harvested with centrifuging on 2,000 rpm for 5 min at 4° C. Pellets were washed once by PBS and re-suspended in 1 mL PBS. 200 μL cells mixture were added to the chamber for cytospining. Cells were cytospun on 800 rpm for 10 min; slides were fixed in fresh-made 4% paraformaldehyde fixation for 20 min at room temperature, then moved to 70% ethanol for 20 min. Slides were stained with Propidium Iodide (“PI”) (20 μg/mL) and RNase A (100 μg/mL) for 15 min. Slides were washed with PBS for three times and mounted with Vectashield anti-fade mounting media (Vector Laboratories, Inc., Burlingame, Calif.). Images were taken using a Nikon Eclipse TE-300 confocal microscope.

human lymphocytes = assay: PCC induction and PI staining; type: cell-based; settings: 1 μM OA, without additional reagents
[1] = tested on: Burkitt's Lymphoma CA46 cells; assay: PCC induction and PI staining; type: cell-based, human; settings: 1 μM OA, 1 h
Experimental: as §1

For `CN1CC[C@H](c2c(O)cc(O)c3c(=O)cc(-c4ccccc4Cl)oc23)[C@H](O)C1` [Flavorpiridol], the “effect of the added inhibitor on PCC induction by Lasonolide A” value (from here on “effect of the added inhibitor”) (tumor cells) was “could not influence the PCC induction”.

With `C[C@@H](CN1CC(=O)NC(=O)C1)N1CC(=O)NC(=O)C1` [ICRF187] the “effect of the added inhibitor” value (tumor cells) was “changed the pattern of PCC”.

For `C=C1[C@@H](O)[C@@H]2O[C@]3(CC[C@H](/C=C/[C@@H](C)[C@@H]4CC(C)=C[C@@]5(O[C@H](C[C@@](C)(O)C(=O)O)CC[C@H]5O)O4)O3)CC[C@H]2O[C@@H]1[C@@H](O)C[C@H](C)[C@H]1O[C@@]2(CCCCO2)CC[C@H]1C` [OA, Okadaic Acid, reference compound], the “lymphocytes going to PCC” value (human lymphocytes) was 1.7% and the “cells with premature chromosome condensation (PCC)” value [1] was 31%.

For `CC[C@H](CO)Nc1nc(NCc2ccccc2)c2ncn(C(C)C)c2n1` [Roscovitine], the “effect of the added inhibitor” value (tumor cells) was “could not influence the PCC induction”.

For `C[C@@]1(CO)[C@H](O)CC[C@@]2(C)[C@H]1CC[C@H]1C[C@@H]3C[C@@]12CC[C@]3(O)CO` [aphidicolin], the “effect of the added inhibitor” value (tumor cells) was “had no effect on PCC induction”.
